# Laboratory results as given in patent publication US9926369B2, “Methods for treating hepatocellular cancer by administering an anti-Ang-2 antibody” (Regeneron Pharmaceuticals, Inc., priority 2009, dated 2018).
# Key:
# [1] = test system: PC3 (Human Prostate Cancer Cell Line) tumors; test: PC3 mouse tumor model; format: in vivo, NCr nude mice
# Procedure: Briefly, 5×10^6 PC3 cells in 100 μl of growth factor-reduced Matrigel (BD Biosciences) were injected subcutaneously into the flanks of 6-8 week old male NCr nude mice (Taconic, Hudson, N.Y.). After tumor volumes reached an average of about 200 mm^3, mice were randomized into groups for treatment. […] Tumor volumes were measured twice per week over the course of the experiment and tumor weights were measured upon excision of tumors at the conclusion of the experiment. Averages (mean+/−standard deviation) of tumor weight and growth were calculated for each treatment group. Percent decrease of tumor weight and growth were calculated from comparison to Fc protein measurements.
# Monomeric hAng-2FD = target: T1, Monomeric hAng-2FD (Homo sapiens, UniProt O15123); test: SPR binding to monomeric hAng-2FD at 25° C. and 37° C.
# T1 sequence (O15123 282-496 limits assumed): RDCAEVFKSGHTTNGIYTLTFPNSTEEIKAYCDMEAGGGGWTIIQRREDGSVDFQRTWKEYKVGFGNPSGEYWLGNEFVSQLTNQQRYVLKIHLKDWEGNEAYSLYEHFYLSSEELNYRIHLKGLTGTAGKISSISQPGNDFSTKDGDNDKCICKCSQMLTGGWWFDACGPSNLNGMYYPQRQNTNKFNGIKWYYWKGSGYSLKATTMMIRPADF
# Procedure: Additional experiments were conducted to measure the binding properties of selected anti-Ang-2 antibodies to monomeric hAng-2FD at 25° C. and 37° C. Each selected antibody or control construct was captured at a flow rate of 40 μL/min for 1 minute on a goat anti-human IgG polyclonal antibody surface created through direct chemical coupling to a BIACORE™ chip to form a captured antibody surface. Human Ang-2FD at a concentration of 500 nM or 7.8 nM was injected over the captured antibody surface at a flowrate of 60 μL/min for 3 minutes, and antigen-antibody dissociation was monitored in real time for 20 minutes at either 25° C. or 37° C.
# [2] = target: T2, hAng-1 WT binding to Tie-2 (Homo sapiens, UniProt Q15389); test: ELISA blocking of full-length hAng-1 WT binding to hTie-2-mFc; format: biochemical; details: 0.6 nM hAng-1-His
# T2 construct: Full-length human Ang-2 or Ang-1 protein conjugated to 6× histidine tag (R&D Systems, Minneapolis, Minn.); purchased R&D Systems
# T2 sequence (Q15389 20-498 limits assumed): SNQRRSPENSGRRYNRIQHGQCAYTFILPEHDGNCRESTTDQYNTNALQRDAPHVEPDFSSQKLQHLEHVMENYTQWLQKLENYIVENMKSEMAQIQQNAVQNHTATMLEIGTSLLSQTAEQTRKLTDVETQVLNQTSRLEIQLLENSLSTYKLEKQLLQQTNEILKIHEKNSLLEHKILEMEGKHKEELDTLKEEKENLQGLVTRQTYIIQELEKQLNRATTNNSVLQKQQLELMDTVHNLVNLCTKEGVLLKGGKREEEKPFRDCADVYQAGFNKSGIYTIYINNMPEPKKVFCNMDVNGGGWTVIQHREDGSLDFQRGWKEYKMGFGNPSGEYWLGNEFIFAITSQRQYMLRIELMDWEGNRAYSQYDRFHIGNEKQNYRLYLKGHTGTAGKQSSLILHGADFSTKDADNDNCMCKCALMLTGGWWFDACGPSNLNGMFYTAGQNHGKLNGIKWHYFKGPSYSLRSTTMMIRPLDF
# Procedure: The ELISA experiments shown in this Example were conducted in a similar manner to the experiments of Example 5. Briefly, hTie-2-mFc (a chimeric construct consisting of human Tie-2 conjugated to mouse IgG; SEQ ID NO:525) was coated onto 96-well plates at a concentration of 2 μg/ml and incubated overnight followed by washing four times in wash buffer (PBS with 0.05% Tween-20). The plate was then blocked with PBS (Irvine Scientific, Santa Ana, Calif.) containing 0.5% BSA (Sigma-Aldrich Corp., St. Louis, Mo.) for one hour at room temperature. In a separate plate, purified anti-Ang-2 antibodies and control constructs, at a starting concentration of 300 nM, were serially diluted by a factor of three across the plate. Full-length human Ang-2 or Ang-1 protein conjugated to 6× histidine tag (R&D Systems, Minneapolis, Minn.) were added to a final concentration of 0.6 nM and incubated for one hour at room temperature. The antibody/antigen mixture was then added to the plate containing hTie-2-mFc and incubated for one hour at room temperature. Detection of Ang-2-His or Ang-1-His bound to hTie-2-mFc protein was determined with Horse-Radish Peroxidase (HRP) conjugated to a-Penta-His antibody (Qiagen, Valencia, Calif.) and developed by standard colorimetric response using tetramethylbenzidine (TMB) substrate (BD Biosciences, San Jose, Calif.). Absorbance was read at OD450 for 0.1 sec. […]
# hBA2 = hBA2 (Homo sapiens, UniProt O15123); test: SPR binding to human bow-Ang-2 tetrameric construct (hBA2)
# Sequence of hBA2 (O15123 with tags, fused parts or gaps): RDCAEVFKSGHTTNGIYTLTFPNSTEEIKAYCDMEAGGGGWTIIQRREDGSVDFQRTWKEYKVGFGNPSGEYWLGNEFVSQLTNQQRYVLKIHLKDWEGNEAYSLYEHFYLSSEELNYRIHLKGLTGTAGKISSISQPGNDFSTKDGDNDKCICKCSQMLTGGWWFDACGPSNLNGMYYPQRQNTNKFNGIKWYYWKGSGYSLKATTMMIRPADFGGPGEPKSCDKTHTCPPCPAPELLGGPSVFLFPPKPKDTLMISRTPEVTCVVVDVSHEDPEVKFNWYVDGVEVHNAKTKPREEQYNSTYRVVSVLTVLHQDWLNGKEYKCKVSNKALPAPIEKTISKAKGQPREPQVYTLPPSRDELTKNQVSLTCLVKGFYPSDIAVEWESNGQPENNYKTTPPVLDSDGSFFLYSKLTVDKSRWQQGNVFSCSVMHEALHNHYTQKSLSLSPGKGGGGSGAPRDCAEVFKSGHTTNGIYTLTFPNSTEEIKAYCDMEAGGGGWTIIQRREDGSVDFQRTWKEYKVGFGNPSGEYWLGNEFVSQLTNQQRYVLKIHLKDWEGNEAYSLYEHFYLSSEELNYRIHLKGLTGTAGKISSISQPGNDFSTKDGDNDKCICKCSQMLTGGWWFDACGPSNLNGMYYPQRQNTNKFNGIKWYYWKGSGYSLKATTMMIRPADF
# [3] = PC3, 2.5 mg/kg subcutaneous twice per week
# [4] = PC3, 10 mg/kg intraperitoneal twice per week, vs Fc protein
# [5] = PC3, 12.5 mg/kg subcutaneous twice per week
# [6] = PC3, 25 mg/kg subcutaneous twice per week
substance,measurement,setting,value
"H1H685P: human anti-Ang-2 antibody, HCVR/LCVR SEQ ID NOs 18/20; also referred to as mAb1 [Antibody H1H685P]",% Decrease in Tumor Growth,[1]; [3],70%
same,Avg Tumor Growth,[1]; [3],308 ± 274 mm^3
same,Avg Tumor Weight,"[1]; PC3, 10 mg/kg intraperitoneal twice per week, approximately three weeks, mean ± SD",0.44 ± 0.12 g
same,Avg Tumor Growth,"[1]; PC3, 10 mg/kg intraperitoneal twice per week, mean ± SD",305 ± 143 mm^3
same,% Decrease in Tumor Growth,[1]; [4],40%
same,% Decrease in Tumor Weight,[1]; [4],33%
same,% Decrease in Tumor Growth,[1]; [5],47%
same,Avg Tumor Growth,[1]; [5],550 ± 150 mm^3
same,% Decrease in Tumor Growth,[1]; [6],60%
same,Avg Tumor Growth,[1]; [6],413 ± 208 mm^3
same,Anti-tumor activity in the PC3 mouse tumor model (in words),[1]; as compared to the control constructs,especially marked anti-tumor activity
same,Kd,Monomeric hAng-2FD; 25° C.,0.336 nM
same,"ka, binding to monomeric hAng-2FD",Monomeric hAng-2FD; 25° C.,244000 M/s
same,"kd, binding to monomeric hAng-2FD",Monomeric hAng-2FD; 25° C.,7.96e-05 s⁻¹
same,Kd,Monomeric hAng-2FD; 37° C.,0.342 nM
same,"ka, binding to monomeric hAng-2FD",Monomeric hAng-2FD; 37° C.,406000 M/s
same,"kd, binding to monomeric hAng-2FD",Monomeric hAng-2FD; 37° C.,0.000139 s⁻¹
same,IC50,[2],> 300 nM
same,Kd,hBA2,0.0119 nM
